Data published in ChEMBL document CHEMBL2069257, “A fluorescent reporter of ATP binding-competent receptor kinases” (Bioorg Med Chem Lett, 2012).
The source made the active and inactive calls. No cut-off for these calls is given here.

Experiments:
[1] = target: T1, Receptor tyrosine-protein kinase erbB-2 (Homo sapiens, UniProt P04626); assay: Inhibition of truncated soluble ERBB2 expressed in human MCF7 cell lysate at 1 to 10 uM after mCherry fluorescence assay; type: cell-free
[2] = target: T1, Receptor tyrosine-protein kinase erbB-2; assay: Inhibition of truncated soluble ERBB2 expressed in human MCF7 cell lysate at 1 to 10 uM after mCherry fluorescence assay pretreated with canertinib before lysis; type: cell-based
[3] = target: Proto-oncogene tyrosine-protein kinase Src (Homo sapiens) (UniProt P12931); assay: Inhibition of SRC using biotinylated HNRNPK as substrate up to 6 uM by blotting method
Chain of Proto-oncogene tyrosine-protein kinase Src (Homo sapiens) (P12931 2-536 limits assumed): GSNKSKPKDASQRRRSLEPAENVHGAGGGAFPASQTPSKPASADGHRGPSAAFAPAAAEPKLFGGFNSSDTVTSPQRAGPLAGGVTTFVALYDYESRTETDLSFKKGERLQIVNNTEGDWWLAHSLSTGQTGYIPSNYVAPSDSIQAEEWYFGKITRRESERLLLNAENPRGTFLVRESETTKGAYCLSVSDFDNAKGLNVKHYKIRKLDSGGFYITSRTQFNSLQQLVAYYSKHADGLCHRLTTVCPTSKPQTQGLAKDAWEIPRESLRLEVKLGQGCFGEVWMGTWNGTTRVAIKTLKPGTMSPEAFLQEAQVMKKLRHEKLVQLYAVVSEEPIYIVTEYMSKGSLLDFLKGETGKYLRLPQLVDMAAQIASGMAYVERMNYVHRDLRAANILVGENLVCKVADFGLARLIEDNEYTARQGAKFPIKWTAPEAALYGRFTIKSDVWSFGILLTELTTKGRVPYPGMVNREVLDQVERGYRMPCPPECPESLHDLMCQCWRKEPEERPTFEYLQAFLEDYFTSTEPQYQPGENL

[4] = target: T1, Receptor tyrosine-protein kinase erbB-2; assay: Inhibition of full-length/His-tagged ERBB2 overexpressed in human MCF7 cells assessed as inhibition of AKT phosphorylation at 0.2 to 6 uM after 12 hrs by Western blot analysis; type: cell-based
[5] = target: T1, Receptor tyrosine-protein kinase erbB-2; assay: Binding affinity to full-length/His-tagged ERBB2 UV-vis emission spectroscopy
[6] = target: T1, Receptor tyrosine-protein kinase erbB-2; assay: Inhibition of ERBB2 autophosphorylation Tyr 1139 residue in human BT474 cells at 2 to 14 uM after 12 hrs by Western blotting
[7] = target: Proto-oncogene tyrosine-protein kinase Src (Homo sapiens) (UniProt P12931); assay: Inhibition of SRC using biotinylated HNRNPK as substrate at 0.2 to 6 uM by blotting method

T1 sequence (P04626 whole entry, the tested form may be a part): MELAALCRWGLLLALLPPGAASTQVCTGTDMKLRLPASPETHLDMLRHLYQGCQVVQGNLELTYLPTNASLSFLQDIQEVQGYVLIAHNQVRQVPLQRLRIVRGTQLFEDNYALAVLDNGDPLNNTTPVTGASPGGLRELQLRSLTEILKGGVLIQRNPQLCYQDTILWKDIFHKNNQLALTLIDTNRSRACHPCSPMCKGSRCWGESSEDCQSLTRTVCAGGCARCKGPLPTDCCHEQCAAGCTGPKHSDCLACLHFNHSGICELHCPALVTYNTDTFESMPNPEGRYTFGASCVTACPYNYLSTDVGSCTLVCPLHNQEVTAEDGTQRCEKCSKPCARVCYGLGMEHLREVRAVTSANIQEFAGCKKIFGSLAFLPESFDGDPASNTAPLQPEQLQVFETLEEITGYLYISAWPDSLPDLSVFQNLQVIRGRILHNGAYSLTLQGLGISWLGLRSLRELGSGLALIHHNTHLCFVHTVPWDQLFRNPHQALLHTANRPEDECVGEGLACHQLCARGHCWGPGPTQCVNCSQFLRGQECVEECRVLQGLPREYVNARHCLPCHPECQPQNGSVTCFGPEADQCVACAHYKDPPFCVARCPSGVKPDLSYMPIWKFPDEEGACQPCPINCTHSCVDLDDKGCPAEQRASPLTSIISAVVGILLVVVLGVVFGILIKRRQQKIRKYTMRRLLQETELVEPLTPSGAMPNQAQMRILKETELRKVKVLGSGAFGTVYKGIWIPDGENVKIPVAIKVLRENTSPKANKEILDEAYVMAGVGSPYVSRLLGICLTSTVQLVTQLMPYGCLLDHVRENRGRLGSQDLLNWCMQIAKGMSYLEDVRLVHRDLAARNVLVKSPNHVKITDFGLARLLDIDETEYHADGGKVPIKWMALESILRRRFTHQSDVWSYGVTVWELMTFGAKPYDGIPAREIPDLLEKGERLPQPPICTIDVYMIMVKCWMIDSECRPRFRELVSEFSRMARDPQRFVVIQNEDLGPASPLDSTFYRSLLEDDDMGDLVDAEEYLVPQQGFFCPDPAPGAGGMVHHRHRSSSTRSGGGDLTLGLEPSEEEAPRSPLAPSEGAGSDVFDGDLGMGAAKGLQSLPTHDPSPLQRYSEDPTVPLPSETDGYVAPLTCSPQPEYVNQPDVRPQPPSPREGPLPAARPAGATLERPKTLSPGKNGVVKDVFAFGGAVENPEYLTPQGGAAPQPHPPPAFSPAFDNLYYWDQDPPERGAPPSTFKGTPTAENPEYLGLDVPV

Row | Compound | inhibition [1] | inhibition [2] | inhibition [3] | inhibition [4] | Kd [5] | Ki [6] | inhibition [7]
1 | CN(C)c1ccc(/C=C/c2ccc3ncnc(NCc4ccccc4)c3c2)cc1 | Active | inactive | inactive | inactive | 2900 nM | 3100 nM | 
2 | Cc1ccc(-c2nn(C(C)(C)C)c3ncnc(N)c23)cc1 |  |  |  |  |  |  | Active
